From ChEMBL document CHEMBL1201862, “PubChem BioAssay data set” (2004) come the findings set out here.

Among the test systems are CAKI-1; CCRF-CEM; HCT-116; HCT-15; HL-60; HOP-62; HOP-92; IGROV-1; MCF7; MOLT-4; NCI-H226; NCI-H460; OVCAR-4; OVCAR-5; RPMI-8226; SK-MEL-28; SK-MEL-2; U-251; UACC-62; UO-31.
Assay in all cases: NCI tumour cell line growth inhibition, 48 h

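Following 48 hours of exposure in 96-well plates, responses at five concentrations were used to interpolate endpoints linearly. Abbreviation: GI50, concentration required for 50% inhibition of growth.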 Active and inactive are the calls of the source. Cut-off read from the data, not from the text of the source: active = GI50 up to about 1.1 µM and inactive = higher.

Take `C=CCn1c2ccccc2c2c(C)c3cnccc3c(C)c21`: the GI50 is 2.06 µM (inactive) in the assay on CAKI-1; 4.12 µM (inactive) with CCRF-CEM; 4.48 µM (inactive) with HCT-116; 6.92 µM with HCT-15; 3.17 µM (inactive) in the assay on HL-60; 9.98 µM (inactive) in the assay with HOP-62. The GI50 is 1.92 µM (inactive) in the assay with HOP-92; 8.75 µM (inactive) with IGROV-1; 5.52 µM (inactive) in the assay with MCF7; 2.95 µM (inactive) in the assay with MOLT-4; 5.16 µM (inactive) in the assay with NCI-H226; 4.47 µM (inactive) with NCI-H460. In addition, the GI50 is 8.97 µM (inactive) in the assay on OVCAR-4; 6.38 µM (inactive) in the assay with OVCAR-5; 3.61 µM (inactive) in the assay with RPMI-8226; 14.8 µM (inactive) in the assay on SK-MEL-28; 15.8 µM (inactive) with SK-MEL-2; 11.2 µM (inactive) with U-251. Besides, the GI50 in the assay with UACC-62 is 9.35 µM (inactive); in the assay on UO-31, 4.39 µM (inactive).

Take `COc1cc(/C=C(/C#N)C(N)=O)ccc1O`: the GI50 was > 100 µM (inactive) with CAKI-1; > 100 µM (inactive) in the assay with CCRF-CEM; > 100 µM (inactive) with HCT-116; over 100 µM in the assay on HCT-15; > 100 µM (inactive) in the assay with HL-60; > 100 µM (inactive) with HOP-62. The GI50 with HOP-92 was > 56.8 µM (inactive); in the assay on IGROV-1 it was > 100 µM (inactive); with MCF7 it was > 100 µM (inactive); in the assay with MOLT-4 it was > 100 µM (inactive); with NCI-H226 it was > 88.9 µM (inactive); in the assay with NCI-H460, > 100 µM (inactive). The GI50 in the assay with OVCAR-4 is > 100 µM (inactive); in the assay on OVCAR-5, > 100 µM (inactive); with RPMI-8226, > 100 µM (inactive); in the assay with SK-MEL-28, > 100 µM (inactive); with SK-MEL-2 it was > 70.8 µM (inactive); in the assay with U-251 it was > 100 µM (inactive). The GI50 was > 100 µM (inactive) in the assay on UACC-62 and > 41.5 µM (inactive) with UO-31.

In the case of `CC1(C23CC4CC(CC(C4)C2)C3)n2c(=O)n(-c3ccccc3)c(=O)n2C1(C)C12CC3CC(CC(C3)C1)C2` (stereo not drawn), the GI50 in the assay on CAKI-1 is > 100 µM (inactive); with CCRF-CEM, > 100 µM (inactive); in the assay with HCT-15, over 100 µM; in the assay with HL-60 it was > 100 µM (inactive); in the assay with HOP-62, > 100 µM (inactive); with HOP-92, > 100 µM (inactive). Further, the GI50 in the assay with IGROV-1, with MCF7, in the assay on MOLT-4, in the assay with NCI-H226, in the assay on NCI-H460 and in the assay on OVCAR-5 was > 100 µM (inactive) throughout. Besides, the GI50 in the assay with RPMI-8226 is 89.7 µM (inactive); in the assay on SK-MEL-28, > 100 µM (inactive); in the assay on SK-MEL-2 it was > 100 µM (inactive); in the assay on U-251, > 100 µM (inactive); in the assay on UACC-62, > 100 µM (inactive); in the assay with UO-31, > 100 µM (inactive).

With `COc1ccc(C(=O)c2c(-c3ccccc3NC(=O)C(F)(F)F)[nH]c3ccccc23)cc1`, the GI50 in the assay with CAKI-1 is 6.41 µM (inactive); in the assay on CCRF-CEM, 2.46 µM (inactive); in the assay on HCT-116 it was 12.2 µM (inactive); with HCT-15, 4.98 µM; with HL-60 it was 2.42 µM (inactive); in the assay with HOP-62 it was 9.16 µM (inactive). Moreover, the GI50 was 12.4 µM (inactive) in the assay on HOP-92; 10.6 µM (inactive) with IGROV-1; 1.74 µM (inactive) in the assay with MCF7; 2.93 µM (inactive) in the assay with MOLT-4; 14.7 µM (inactive) with NCI-H226; 4.26 µM (inactive) in the assay with NCI-H460. Also, the GI50 is 4.59 µM (inactive) with OVCAR-4; 12.5 µM (inactive) in the assay on OVCAR-5; 4.8 µM (inactive) in the assay on RPMI-8226; 13.6 µM (inactive) in the assay with SK-MEL-28; 4.02 µM (inactive) in the assay with SK-MEL-2; 2.56 µM (inactive) with U-251. Moreover, the GI50 in the assay with UACC-62 was 12.1 µM (inactive); with UO-31, 5.05 µM (inactive).

Take `CC1=C2C(O)C(C(C)C(=O)NCC(C)C)CCC2(C)C=CC1=O` (stereo not drawn): the GI50 was > 100 µM (inactive) in the assay on CAKI-1; > 100 µM (inactive) in the assay with CCRF-CEM; > 100 µM (inactive) in the assay with HCT-116; over 100 µM in the assay with HCT-15; > 100 µM (inactive) in the assay with HL-60; > 100 µM (inactive) in the assay with HOP-62. Besides, the GI50 in the assay with HOP-92, in the assay on IGROV-1, in the assay with MCF7, in the assay with MOLT-4, in the assay with NCI-H226 and with NCI-H460 was > 100 µM (inactive) in each case. The GI50 with OVCAR-4, in the assay on OVCAR-5, with RPMI-8226, in the assay on SK-MEL-28, in the assay with SK-MEL-2 and in the assay with U-251 was > 100 µM (inactive) in each case. Moreover, the GI50 with UACC-62 and in the assay on UO-31 was > 100 µM (inactive) in each case.
